Source: patent publication US12703686B2, “4-Methoxy-2-phenethyl isoindoline-1-one derivative and composition for treating neurological diseases, comprising same” (CNG BIO CO., LTD., priority 2020, dated 2026)

Assays:
C6 glioma cells = experiment: Ability to promote increase of nerve growth factor (NGF) in C6 glioma cells, ELISA; assay type: cell-based, Rat; details: 10 μM, 24 hours, FIG. 9
Method: In order to measure the amount of nerve growth factor (NGF) produced in the cell medium and to confirm the effect on cell viability when cells were treated with the compounds of the present invention, the following experiments were performed.
Rat astrocyte-derived C6 glioma cells were dispensed in DMEM culture solution at a concentration of 1×10^5 cells/well in a 24 well plate and stabilized overnight, and then treated with the compounds of Formulas 3, 6, 7, and 8 at a concentration of 10 μM, and reacted in a 37° C. incubator for 24 hours. The treated medium was collected and centrifuged, and then absorbance was measured using an enzyme linked immunoassay kit (ELISA kit).

BV2 cells (microglia) = experiment: NO production in LPS-stimulated BV2 cells (Griess reaction), antineuritic activity; assay type: cell-based; details: 10 NM, 100 ng/ml LPS for 24 hours, FIG. 13
Method: In order to confirm the change in NO production and the effect on cell viability when BV2 cells were treated with the compounds of the present invention, the following experiments were performed. L-NMMA (NG-monomethyl-L-arginine), an NO synthesis inhibitor, was used as a positive control group.
Analysis of NO production for evaluation of antineuritic activity BV2 cells (microglia) were dispensed in DMEM culture solution at a concentration of 6×10^4 cells/well in a 96 well plate, and then treated with the compounds of Formulas 6, 7, and 8 at a concentration of 10 NM, and incubated for 24 hours. After 24 hours, each sample was treated with a concentration of 10 NM, reacted for 1 hour, and then stimulated with 100 ng/ml of LPS for 24 hours. The production of nitrite, a soluble oxidation product of NO (nitric oxide), was measured in the culture medium through the Griess reaction.

Compound | nerve growth factor produced in the cell medium (C6 glioma cells) | NO production (nitrite) compared to untreated control group (BV2 cells (microglia))
C=CCc1c(O)cc(OC)c2c1C(=O)N(CCc1ccccc1)C2 [Formula 3, 7-allyl-6-hydroxy-4-methoxy-2-phenethyl isoindolin-1-one] | significantly excellent | 
COc1cc(O)c(CCO)c2c1CN(CCc1ccccc1)C2=O [Formula 6, 6-hydroxy-7-(2-hydroxyethyl)-4-methoxy-2-phenethyl isoindolin-1-one] |  | reduced
COc1cc(O)c(CCN(C)C)c2c1CN(CCc1ccccc1)C2=O [Formula 7, 7-(2-(dimethylamino)ethyl)-6-hydroxy-4-methoxy-2-phenethyl isoindolin-1-one] | significantly excellent | reduced
COc1cc(O)c(CCCO)c2c1CN(CCc1ccccc1)C2=O [Formula 8, 6-hydroxy-7-(3-hydroxypropyl)-4-methoxy-2-phenethyl isoindolin-1-one] |  | reduced
